These results are taken from patent publication US5891882A, “Benzopyranopyrrole and benzopyranopyridine α-1 adenergic compounds” (priority 1997, dated 1999).

For data set [1], the target named is T1, α-1A adrenoreceptor (rat vas deferens) (Rattus norvegicus, UniProt P43140).
T1 construct: from tissue; host or cells: rat vas deferens
T1 sequence (P43140 1-466): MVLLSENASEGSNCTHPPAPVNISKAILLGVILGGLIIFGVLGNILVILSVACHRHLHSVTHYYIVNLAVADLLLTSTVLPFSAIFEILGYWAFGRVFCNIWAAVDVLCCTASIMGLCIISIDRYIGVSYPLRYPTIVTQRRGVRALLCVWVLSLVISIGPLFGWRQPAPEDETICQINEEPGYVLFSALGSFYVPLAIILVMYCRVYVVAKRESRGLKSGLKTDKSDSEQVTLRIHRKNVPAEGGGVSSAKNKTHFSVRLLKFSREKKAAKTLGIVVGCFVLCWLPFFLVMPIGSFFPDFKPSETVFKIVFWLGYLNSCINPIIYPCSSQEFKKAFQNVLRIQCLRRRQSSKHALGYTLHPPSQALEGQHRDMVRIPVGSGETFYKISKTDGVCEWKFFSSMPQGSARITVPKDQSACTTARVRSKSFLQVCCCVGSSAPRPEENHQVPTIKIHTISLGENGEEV
Put plainly: Functional antagonism: inhibition of phenylephrine-induced contraction of rat vas deferens. In kind it is cell-based. The conditions noted are these: rat vas deferens, phenylephrine-induced contraction, Schild plot. An excerpt:
(§1) Functional assays indicative of pharmacologically defined α-1 adrenoreceptors were used to further characterize compounds. Inhibition of phenylephrine (PE)-induced contraction of canine prostate smooth muscle can be correlated with α-1A adrenoreceptor activation. […] For each of these models, agonist dose response curves were repeated against increasing concentrations of test agent to derive a Schild plot [log ([…]) against log (molarity of test agent)] to determine the pA2.

Data set [2] deals with T2, α-1 Adrenoceptors (Rat Aorta) (Rattus norvegicus, UniProt P23944).
T2 construct: Rat Aorta; from tissue; host or cells: rat aorta
T2 sequence (P23944 1-561): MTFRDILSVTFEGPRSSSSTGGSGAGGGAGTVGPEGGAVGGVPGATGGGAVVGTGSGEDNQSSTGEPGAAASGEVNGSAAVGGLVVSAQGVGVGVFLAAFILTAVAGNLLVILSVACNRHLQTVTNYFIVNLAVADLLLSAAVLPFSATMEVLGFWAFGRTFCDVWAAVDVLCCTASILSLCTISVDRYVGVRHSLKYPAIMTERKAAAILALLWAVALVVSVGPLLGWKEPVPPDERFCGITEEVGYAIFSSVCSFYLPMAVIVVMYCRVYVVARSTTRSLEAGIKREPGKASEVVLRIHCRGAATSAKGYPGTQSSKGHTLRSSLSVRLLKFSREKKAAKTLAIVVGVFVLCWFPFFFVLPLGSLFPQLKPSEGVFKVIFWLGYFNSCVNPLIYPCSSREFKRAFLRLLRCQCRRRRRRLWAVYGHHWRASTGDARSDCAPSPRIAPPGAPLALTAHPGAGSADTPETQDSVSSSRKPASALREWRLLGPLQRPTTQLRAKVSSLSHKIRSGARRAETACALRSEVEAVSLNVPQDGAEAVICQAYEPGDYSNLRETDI
Put plainly: Functional antagonism at α-1 adrenoceptors, rat aorta. As to conditions: read-out: In Vitro Characterization (pA2) Rat Aorta (converted). In kind it is cell-based. A digest of the protocol: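 Phenylephrine dose-response curves for contraction were repeated against increasing test-agent concentrations. pA2 was derived by Schild plot [[…] vs log molarity of test agent].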

Data set [3] addresses T3, α-1B adrenoreceptor (rat spleen) (Rattus norvegicus, UniProt P15823).
T3 construct: from tissue; host or cells: rat spleen
T3 sequence (P15823 1-515): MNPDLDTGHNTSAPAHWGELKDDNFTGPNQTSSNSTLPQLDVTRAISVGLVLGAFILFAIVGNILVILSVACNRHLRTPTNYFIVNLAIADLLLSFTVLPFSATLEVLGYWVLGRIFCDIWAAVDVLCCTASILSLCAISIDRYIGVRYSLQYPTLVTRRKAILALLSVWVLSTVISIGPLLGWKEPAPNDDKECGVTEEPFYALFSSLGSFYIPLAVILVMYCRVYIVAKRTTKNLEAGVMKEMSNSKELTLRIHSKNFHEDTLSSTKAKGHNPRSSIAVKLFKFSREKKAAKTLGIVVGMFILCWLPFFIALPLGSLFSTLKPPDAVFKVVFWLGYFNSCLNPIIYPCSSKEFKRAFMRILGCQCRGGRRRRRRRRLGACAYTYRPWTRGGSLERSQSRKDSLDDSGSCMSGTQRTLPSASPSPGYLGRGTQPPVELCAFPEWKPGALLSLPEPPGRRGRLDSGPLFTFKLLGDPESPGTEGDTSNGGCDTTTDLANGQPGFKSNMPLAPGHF
Put plainly: Functional antagonism: inhibition of phenylephrine-induced contraction of rat spleen. In kind it is cell-based. As to conditions: rat spleen, phenylephrine-induced contraction, Schild plot.
Excerpt: as §1

The subject of the next data set is α-1 adrenoreceptor. As to conditions: cited from earlier work.
For data set [4] the following is noted: antihypertensive treatment; cited from earlier work.

Structures are written as SMILES. Counter-ions that a name gives are not always drawn.

`COc1cccc2c1[C@@H]1CN(CCCCn3c(=O)[nH]c4c(sc5ccncc54)c3=O)C[C@@H]1CO2` [Example 28, 3-[4-((3aR,9bR)-cis-9-Methoxy-1,2,3,3a,4,9b-hexahydro-[1]-benzopyrano[3,4-c]pyrrol-2-yl)butyl]-pyrido[3',3':4,5]thieno[3,2-d]pyrimidine-2,4(1H,3H)-dione hydrochloride]: in data set [1], the “In Vitro Characterization (pA2) Rat Vas” value stood at 9.39. Moreover, the Kb in data set [2] was 0.195 nM.
`COc1ccc2sc3c(=O)n(CCCCN4C[C@@H]5COc6cccc(OC)c6[C@@H]5C4)c(=O)[nH]c3c2n1` [Example 30, 3-[4-((3aR,9bR)-cis-9-Methoxy-1,2,3,3a,4,9b-hexahydro-[1]-benzopyrano[3,4-c]pyrrol-2-yl)butyl]-8-methoxy-pyrido[2',3':4,5]thieno[3,2-d]pyrimidine-2,4(1H,3H)-dione hydrochloride]: in data set [1], the “In Vitro Characterization (pA2) Rat Vas” value came out at 9.6. In addition, the Kb in data set [2] is 0.468 nM.
Taken in the same sequence, the figures for `COc1cccc2c1[C@@H]1CN(CCCCn3c(=O)[nH]c4c(sc5ccncc54)c3=O)C[C@H]1CO2` [Example 41, 3-[4-((3aR,9bR)-trans-9-Methoxy-1,2,3,3a,4,9b-hexahydro-[1]-benzopyrano[3,4-c]pyrrol-2-yl)butyl]-pyrido[3',4':4,5]thieno[3,2-d]pyrimidine-2,4(1H,3H)-dione hydrochloride] were 9.45 and 0.017 nM.
With `COc1cccc2c1[C@@H]1CN(CCCCn3c(=O)[nH]c4c(sc5cnccc54)c3=O)C[C@H]1CO2` [Example 42, hydrochloride], the “In Vitro Characterization (pA2) Rat Vas” value in data set [1] came out at 9.59. Besides, the Kb in data set [2] was 0.0389 nM.
For `COc1cccc2c1[C@@H]1CN(CCCCn3c(=O)[nH]c4c(sc5nc(C)ccc54)c3=O)C[C@H]1CO2` [Example 45, 3-[4-((3aS,9bR)-trans-9-Methoxy-1,2,3,3a,4,9b-hexahydro-[1]-benzopyrano[3,4-c]pyrrol-2-yl)butyl]-7-methyl-pyrido[3',2':4,5]thieno[3,2-d]pyrimidine-2,4(1H,3H)-dione hydrochloride], in that order: 9.59 and 0.209 nM.
For the molecule `COc1cccc2c1[C@@H]1CN(CCCCn3c(=O)[nH]c4c(sc5c(Cl)nccc54)c3=O)C[C@@H]1CO2` [Example 53, 3-[4-((3aR,9bR)-cis-9-Methoxy-1,2,3,3a,4,9b-hexahydro-[1]-benzopyrano[3,4-c]pyrrol-2-yl)butyl]-6-chloro-pyrido[4',3':4,5]thieno[3,2-d]pyrimidine-2,4(1H,3H)-dione], the “In Vitro Characterization (pA2) Rat Vas” value in data set [1] turned out to be 9.31. Moreover, the “In Vitro Characterization (pA2) Rat Spleen” value in data set [3] stood at 7.2. In data set [2], the Kb was 1.07 nM.
Regarding `COc1cc2nc(N3CCN(C(=O)c4ccco4)CC3)nc(N)c2cc1OC` [Prazosin, prazosin], the “dose limiting side effects” value with α-1 adrenoreceptor (BPH treatment) was “hypotension, dizziness, and muscle fatigue”. For the same molecule, the “urinary flow rates and subjective symptom scores” value in the data set on α-1 adrenoreceptor (longer term studies, BPH) is “significant improvements in urinary flow rates and subjective symptom scores”. Moreover, the “urinary incontinence in women” value in data set [4] is “urinary incontinence developed in women”.
